# Where a SMILES comes first, the peptide text is derived from it. The star is where a group is joined. Cbz = O=C(OCc1ccccc1)*
# Columns and labels:
# proteasome = molecular target: T1, proteasome (Saccharomyces cerevisiae, UniProt P23724+P30656); test: Suppression of damage-induced histone degradation by proteasome inhibition; assay type: cell-based; settings: Zeocin-damaged cells
# T1 construct: endogenous in cells; host or cells: Saccharomyces cerevisiae (budding yeast) cells treated with Zeocin
# S phase chromatin = test: Super-resolution microscopy of TetR-mCherry tagged locus 3D volume (chromatin expansion); assay type: cell-based, Saccharomyces cerevisiae; settings: cells fixed 30 min after exposure to different amounts of Zeocin
# Description: Structured illumination images were acquired on a Zeiss Elyra S.1 microscope with a Andor iXon 885 EMCCD camera using a HR diode 488 […] solid state laser, BP 525-580+LP 750 filter and a PLAN-APOCHROMAT 63×N.A. 1.4 oil DIC objective lens. Cells were first fixed in PFA 4%, washed 3 times in PBS and then attached to a thin SIM grade Zeiss 1.5 glass coverslip using Concanavalin A. Cells were fully sectioned by 50-65 slices with […] intervals taken at 60 ms exposures per slice using 5 rotations of the illumination grid. Brightfield images of the cells were also acquired using an X-Cite PC 120 EXFO Metal Halide lamp. Zen Black was used to process the images using automatic settings with the Raw Scale option selected. 3D stacks were then analyzed by using pixel classification and a custom Matlab script to determine the spot volumes and other features as follows. […] Features calculated at the labeled pixels and their local neighborhood are then used to train a pixel classifier based on a Random Forest ensemble learning method. […] Finally, the program generates an ascii file where the key features like volume and solidity 3D and descriptive statistics are listed for all detected nuclei and foci. The solidity factor is calculated as the proportion of pixels in the 3D convex hull. […]
# histone H3/H4 = test: Quantitative immunoblot analysis of histone H3/H4 loss and DDC activation; assay type: cell-based, Saccharomyces cerevisiae
# Description: The total protein content in the relevant samples was determined with the Quant-iT protein assay kit (Thermo Scientific) and 8.75 μg of total protein was loaded and run on Criterion TGX Stain-Free 8-16% (Biorad) gels under SDS denaturing electrophoresis conditions. Rapid fluorescent detection of all proteins in the gel or on the membrane was done according to the manufacturer's specifications and protein transfer on PVDF membranes was performed using the Trans-Blot Turbo system. Rad53 protein was detected using a custom-made mouse monoclonal antibody (GenScript) against FHA2 domain of Rad53. Anti-yH2A was similarly a custom-made polyclonal antibody, that is specific for phospho-S129 in yeast H2A.
# nucleosome occupancy = test: Genome-wide nucleosome mapping (MNase-seq with Candida glabrata spike-in); assay type: cell-based, Saccharomyces cerevisiae; settings: Zeocin 500 μg/ml for 1 hour; reads normalized to C. glabrata
# Description: Strains tested for changes in nucleosome occupancy (GA-6879 and GA-8386) were grown in appropriate media to OD600=0.8. Cultures were split into two and one of them was treated with Zeocin (500 μg/ml) for 1 hour. At this point the OD600 absorbance of each sample was measured and Candida glabrata cells were spiked in to 1/10 according to the sample OD600. Cells were washed three times with ice cold TBS (20 MM Tris.HCl pH8.0 and 150 mM NaCl) and lysed by beat beating in MNase digestion buffer (10 mM Tris pH 8.0, 50 mM NaCl, 5 mM MgCl2, 1 mM CaCl2), 1 mM beta-mercaptoethanol, 0.5 mM spermidine, 0.075% NP40). The obtained chromatin samples were MNase digested to isolate mono-nucleosomes and sequencing libraries were prepared according to the method described in Wiechens, N. et al. (Wiechens et al. 2016). Paired end libraries of MNase digested chromatin were sequenced using Illumina HiSeq technology. Fastq files containing raw reads were aligned to the S. cerevisiae and C. glabrata reference genomes by Bowtie2 with option of maximum fragment length 500 for nucleosome fragments. The nucleosome dyads at each position were calculated in a defined window flanking the transcription start site (TSS). […] The reads were further normalized by dividing the fraction of C. glabrata reads in the sample. […]
# Histone H3 (H3-CFP) = test: Time-lapse live cell tracking of H3-CFP in microfluidic chambers; assay type: cell-based, Saccharomyces cerevisiae
# Description: For H3-CFP (Strain GA-3364 and derivatives) and 2-foci (Strain GA-9777) live cell fluorescent microscopy, LOG phase cells were trapped with 3 pulses of 5 psi pressure in CellASIC plates of the ONIX microfluidic perfusion system (Merck Millipore). All perfusions were done at a continuous flow rate of 2 psi pressure. After a 20-30 minute recovery phase, cells were treated for 30 minutes with the indicated amount of Zeocin prior to high-speed CFP-RFP tracking microscopy. The recovery phase of H3-CFP tagged cells was 20 minutes after which they were treated with a pulse of Zeocin for 1 hour and H3-CFP fluorescence was followed for additional 40 minutes after treatment.
# Live microscopy was done on a temperature controllable Olympus IX81 microscope with a Yokogawa CSU-X1 scanning head equipped with two EM-CCD EvolveDelta (Photometrics) cameras, an ASI MS-2000 Z-piezo stage and a PlanApo x100, NA 1.45 total internal reflection fluorescence microscope oil objective and Visiview software. For mRFP-GFP or mRFP-CFP high-speed tracking, fluorophores were excited with lasers at 561 nm (mCherry or mRFP) and 491 nm (GFP) or 440 nm (CFP) and emitted fluorescence was acquired simultaneously on separate cameras (Semrock FF01-617/73-25 filter for mCherry/mRFP and Semrock FF02-525/40-25 filter for GFP or Semrock FF01-475/42-25 for CFP). High-speed time-lapse series were conducted taking 8 optical slices per stack either every 80 ms for 1 min or 300 ms for 2 min, with 10 ms exposure times per slice respectively. Time-lapse image stacks were analyzed as in Dion et al. 9, using a custom made ImageJ (FIJI) plug-in36 to extract coordinates of locus position from the movies. Phototoxicity was tested by exposing wild-type cells (GA-6879) to standard imaging conditions and following outgrowth for 5 h by morphological analysis, comparing them with unexposed cells. […] Boxplot graphs were generated by plotting all measured distances of treated or untreated cells. […] For each frame, the distance vector of tracks in two channels was measured by selecting the two spots with minimal distance. […]
# chromatin fiber = test: 3D distance between two differentially labeled genomic loci (chromatin flexibility); assay type: cell-based, Saccharomyces cerevisiae; settings: for average inter-spot distance between lacI-GFP and TetR-mRFP tagged loci after DNA damage: loci 320 kbp apart on Chr XIV
# Description: Live microscopy was done on a temperature controllable Olympus IX81 microscope with a Yokogawa CSU-X1 scanning head equipped with two EM-CCD EvolveDelta (Photometrics) cameras, an ASI MS-2000 Z-piezo stage and a PlanApo x100, NA 1.45 total internal reflection fluorescence microscope oil objective and Visiview software. For mRFP-GFP or mRFP-CFP high-speed tracking, fluorophores were excited with lasers at 561 nm (mCherry or mRFP) and 491 nm (GFP) or 440 nm (CFP) and emitted fluorescence was acquired simultaneously on separate cameras (Semrock FF01-617/73-25 filter for mCherry/mRFP and Semrock FF02-525/40-25 filter for GFP or Semrock FF01-475/42-25 for CFP). High-speed time-lapse series were conducted taking 8 optical slices per stack either every 80 ms for 1 min or 300 ms for 2 min, with 10 ms exposure times per slice respectively. Time-lapse image stacks were analyzed as in Dion et al. 9, using a custom made ImageJ (FIJI) plug-in36 to extract coordinates of locus position from the movies. Phototoxicity was tested by exposing wild-type cells (GA-6879) to standard imaging conditions and following outgrowth for 5 h by morphological analysis, comparing them with unexposed cells. Time-series acquired from Strains GA-9227 and GA-9777 (Two-spot data) were deconvolved using Huygens Remote Manager, channel-aligned and cropped to contain one single cell/nucleus with the two respective fluorescent spots. Spot tracking over time was done with the ImageJ plugin TrackMate included in Fiji37. Boxplot graphs were generated by plotting all measured distances of treated or untreated cells. Relative MSD analysis was performed with KNIME38. For each frame, the distance vector of tracks in two channels was measured by selecting the two spots with minimal distance. The inventors performed an MSD analysis on the distance vectors for all frames and tracks with a maximum MSD(t) value bigger than 10 μm^2 were considered as outliers (due to mis-matching two distant tracks) and removed from the analysis. Relative MSD vs. t was averaged over all tracks and plotted using R.
# [1] = test system: core histones H2A, H2B, H3 and H4; test: Quantitative SILAC mass spectrometry of histone abundance before and after Zeocin; assay type: cell-based, Saccharomyces cerevisiae; settings: acute treatment (1 hour) with Zeocin
# Description: For SILAC based mass spectrometry, lysine and arginine double labeling of the lys2A arg4A strain yAG-06A was achieved by growth for at least ten generations in “heavy” medium as described previously in Gruhler et al. 34. After growth to LOG phase or at G1 cell cycle arrest, “light” labeled cells (or “heavy” labeled cells for label-swap controls) were treated for 1 h with Zeocin and mixed 1:1 based on exact cell count with “heavy” labeled (“light” for label-swap control), non-treated control cells. Prior to mixing, FACS and Western blot samples were taken to test for cell cycle distribution and DDC activation.
# Chromatin fractionation was performed as previously described with the modification that chromatin obtained from SILAC labeled yeast samples was resuspended in Urea Buffer (50 mM TRIS pH 7.5, 6 M Urea, 1% SDS, 5 mM EDTA) sonicated for optimal solubilizing of proteins followed by a TCA protein precipitation step prior to downstream mass spectrometric analysis. To avoid carbamylation in urea buffer, samples were kept below 20° C. and quickly processed. Control samples from whole cell extract (WCE), supernatant (SUP) and chromatin fraction (CHR) were analyzed with SDS-PAGE (Novex 8-16% Tris-Glycine Gel, Invitrogen) gel electrophoresis followed by Coomassie staining. […]
Molecule,effect on DNA damage-induced H3 or H4 degradation (proteasome),decompaction of S phase chromatin (3D TetR-mCherry foci volumes) (S phase chromatin),"histone depletion in histone-shutdown strain with constitutive H3/H4 expression (histone H3/H4; growth in media with low level galactose, compared with cells with endogenous histone genes)",DDC activation (yH2A signal) (histone H3/H4; quantitative immunoblot),relationship between histone H3/H4 loss and Zeocin treatment (histone H3/H4; quantitative immunoblot),nucleosome occupancy within promoters and across coding regions (nucleosome occupancy),time of Zeocin exposure within which histone H3 degradation occurred (Histone H3 (H3-CFP); H3-CFP fluorescence) [min],"Histone H3 degradation compared to undamaged cells (Histone H3 (H3-CFP); H3-CFP fluorescence, within 30 minutes of Zeocin exposure) [%]",DSBs per genome generated (Histone H3 (H3-CFP); pulse-treated for 1 h with Zeocin),"average inter-spot distance between lacI-GFP and TetR-mRFP tagged loci after DNA damage (chromatin fiber; G1 cells, printed 0.97-1.2 (before-after)) [μm]","average inter-spot distance between lacI-GFP and TetR-mRFP tagged loci after DNA damage (chromatin fiber; S-phase cells, printed 0.99-1.12 (before-after)) [μm]","inter-spot dynamics and distances between CFP-lacI and TetR-mRFP tagged foci (chromatin fiber; loci 50 kbp apart on Chr III, real time)",levels of the histone variant Htz1 (H2A.Z) [1],"loss of all core histones H2A, H2B, H3 and H4 (ratios of non-modified histone peptides, damage over control L/H) [1]"
CC(C)C[C@@H](C=O)NC(=O)[C@H](CC(C)C)NC(=O)[C@H](CC(C)C)NC(=O)OCc1ccccc1 [MG132] (Cbz-Leu-Leu-Leu-aldehyde),suppressed,–,–,–,–,–,–,–,–,–,–,–,–,–
Zeocin,–,dose-dependent decompaction,same depletion effect,robust DDC activation,dose-dependent relationship,drop in nucleosome occupancy,≤ 30,~30,4-7 DSBs per genome,1.2,1.12,robust increase,remained stable,20-40%
